Usually melting point stands for the temperature of the solid-liquid transition.

`O=c1[nH]c2cc(F)c([N+](=O)[O-])c(Br)c2[nH]c1=O` registered a melting point of 320 to 325 °C.

`CC(C)CCN(CC(O)C(Cc1ccccc1)NC(=O)C(CC(N)=O)NC(=O)c1ccc2ccccc2n1)C(=O)NC(C)(C)C` (stereo unspecified) registered a melting point of 93.5 to 95.6 °C.

For `O=C(Cn1cccn1)c1ccc(F)cc1F`, the melting point was 76.4 °C.

In the case of `Cc1ccc2c(=O)c3c(oc2c1)CCC(C#N)C3` (stereo unspecified), the melting point is 176 to 178 °C.

`CCN(CC)c1ccc([N+](=O)[O-])c2nnoc12` had a melting point of 133 to 136 °C.

Regarding `COc1cc2c(c(Cl)c1Cl)C1=CC(=O)CCC1(CCCCl)C2` (stereo unspecified), the melting point lay within 183 to 185 °C.

Take `COc1ccc(C2(C#N)CCC(CC(=O)O)CC2)c2c1OCCO2` (stereo unspecified): the melting point lay in the range of 149 to 150 °C.

Compound `O=C(O)CNC(=O)CCCC1CCCCC1` had a melting point of 85 to 88 °C.

In turn, `COC(=O)c1c2c(c3c(C)c(OC)c(OC)c(OC)c3c1-c1ccc(OC)c(OC)c1)OCOC2=O` gave a melting point of 84 to 85 °C.

Regarding `NNc1ncccc1-c1ccccn1`, the melting point fell in the range of 64 to 65 °C.

For `CN(N)c1nc2ccccc2s1`, the melting point lay in the range of 137 to 139 °C.

`CC(C)CN(C)C1=NS(=O)(=O)c2cccc(Cl)c21` displayed a melting point of 160 to 162 °C.

`NC(=O)C[C@H](NC(=O)c1ccccn1)C(=O)O`: the melting point is 171 to 172 °C.

For `CCOc1cc(OCCCc2cn(-c3ccc(C(F)(F)F)cc3)nc2OCC)ccc1CCC(=O)O`, the melting point lay within 131 to 132 °C.

`O=Cc1cccc(OC(=O)C(=O)Oc2cccc(C=O)c2)c1` yielded a melting point of 163 to 166 °C.

Regarding `CCOC(=O)CCc1c(O)ccc2c(=O)c3cc(C(=O)OC)ccc3oc12`, the melting point is greater than 215 °C.

For the compound `CC(=O)OC1CSC(Oc2cnccc2Br)C(OC(C)=O)C1OC(C)=O` (stereo unspecified), the melting point is 153 °C.

The compound `CC(C)N(Cc1nc(-c2ncn3c2CN(C)C(=O)c2ccccc2-3)no1)C(C)C` displayed a melting point of 117 to 119 °C.

`CC(=O)n1nc(CBr)c(Oc2cc(Cl)cc(Cl)c2)c1C`: the melting point was in the range of 111 to 113 °C.

`Nc1nc2c(ncn2Cc2ccccc2)c(=O)[nH]1` gave a melting point of 305 to 308 °C.

In the case of `CN(C)C1CCN(c2nc(N3CCc4ccccc4C3)c3ncnc(N4CCOCC4)c3n2)CC1`, the melting point was in the range of 49 to 53 °C.

`C#CC(Cn1cnnn1)n1nnc2cc3c(=O)n(C4CC4)nnc3cc2c1=O` (stereo unspecified) displayed a melting point greater than 195 °C.

Take `Cc1cc(-n2ccc(OCc3ccc(F)cc3)cc2=O)sc1C(=O)NCc1ccccc1`: the melting point lay in the range of 195 to 197 °C.

Take `CNc1ccc(C(=O)Nc2ccccc2[N+](=O)[O-])cc1`: the melting point amounted to 187 °C.

`O=C(/C=C/c1cccc(S(=O)(=O)N2CCN(CCc3ccc4ccccc4c3)CC2)c1)NO` showed a melting point of 184 °C.

`Cc1cc(CCC(=O)O)cc(-c2nc(=O)c3ccccc3s2)n1`: the melting point is 233 to 235 °C.

As for `NNC(=O)c1cc2c(Oc3ccc(Cl)cc3)cncc2s1`, the melting point was in the range of 197 to 199 °C.

`CC(C)N(N=O)c1ccc(N(N=O)c2ccccc2)cc1` displayed a melting point of 85 to 89 °C.

Take `CC(C)CC(=O)Nc1cccc(-c2ccnc3c(-c4ccc5[nH]ccc5c4)cnn23)c1`: the melting point is 167 to 169 °C.

The compound `CCN(CC)C(=O)/C=C(\C)c1ccc(OC(C)c2ccccc2)c2oc(C(C)=O)cc12` (stereo unspecified) displayed a melting point of 70.8 to 73 °C.

For `COc1cc(OC)c(-c2ccc(C(=O)O)s2)cc1/C=C/C(=O)c1ccc(C(=O)O)cc1`, the melting point was greater than 260 °C.

`CC(=O)N1CCc2oc3ncccc3c(=O)c2C1` came in with a melting point of 182 to 184 °C.

On to `CN(C(=O)CN(C(=O)CNC(=O)Nc1cccc(CCO)c1)c1ccccc1)c1ccccc1`, for which the melting point came out at 152 °C.

`COc1ccc2c(c1)c(=O)c(CSC)cn2C` registered a melting point of 122 to 123 °C.

`Cn1c(=O)c(Cl)nc2ccccc21` yielded a melting point of 124 to 130 °C.

`CC(C)(C)[Si](C)(C)Oc1cc(Br)c2oc(-c3ccc(O[Si](C)(C)C(C)(C)C)c(F)c3)nc2c1` returned a melting point of 98 to 99 °C.

The values are drawn from a melting point compilation (Tetko et al.; mined from patent text by program, amines drawn as free bases though some values may be those of a salt).
